Common to all, as to assay type: cell-based, human
In data set [1] the test system is DLD1 colorectal adenocarcinoma cells (MSH6−). In words: Short-term viability assay, DLD1 MSH6-deficient cells +/- O6BG. The settings on record: with or without 10 μM O6BG pre-treatment (MGMT depletion). The procedure:
FIG. 1B: Short-term viability assay curves for KL-50 in DLD1 MSH6-deficient cells pre-treated with 0.01% DMSO control (CTR) or 10 μM O^6BG (+O^6BG) for 1 h prior to KL-50 addition. […] Short-term viability assay curves for (FIG. 1E) KL-50 in HCT116 MLH1−/−cells or (FIG. 1F) HCT116 cells complemented with chromosome 3 carrying wildtype MLH1 (+Chr3) pre-treated with 0.01% DMSO control or 10 μM O^6BG (+O^6BG) for 1 h prior to KL-50 addition. […] For these figures, points, mean; error bars, SD; n>3 technical replicates.
Short-term Cell Viability Assay. Cells were seeded in 96-well plates at 1000 or 2000 cells/well and allowed to adhere at 23° C. for 60 min and then incubated overnight at 37° C. Cells were treated with indicated concentrations of compounds in triplicate for 4-6 days prior to fixation with 3.7% paraformaldehyde and nuclear staining with 1 μg/mL Hoechst 33342 dye. Cells were imaged on a Cytation 3 imaging reader (BioTek) and quantified using CellProfiler software. For in vitro short-term growth delay experiments, IC50 values were determined from the nonlinear regression equation, [inhibitor] vs normalized response with variable slope.

Data set [2] deals with LN229 MGMT+/−, MMR+/− cells. In words: Cell cycle analysis. As to conditions: 20 μM. The procedure:
FIGS. 6A-6E: Selected cell cycle analysis upon drug treatment. FIG. 6A: Percentage of cells in G1, S, and G2 cell cycle phases after treatment, as in FIGS. 5A-5C, measured using integrated nuclear (Hoechst) staining intensity. Columns, mean; error bars, SD; n=3 independent analyses.
Cell Cycle Analysis. Cell cycle analysis was performed using integrated Hoechst nucleic acid dye fluorescence intensity. Briefly, integrated Hoechst fluorescence intensity was log 2 transformed and histograms from DMSO-treated cells were used to identify the centers of the 2N and 4N DNA peaks. These values were used to normalize the 2N DNA peak to 1 and the 4N DNA peak to 2. Cells were then classified by normalized log 2 DNA content as G1 (0.75-1.25), S (1.25-1.75), or G2 (1.75-2.5) phase cells. The percentage of cells within each phase of the cell cycle was determined for each treatment condition. The three sets of Hoechst-stained cells corresponding to the three separate DNA foci stains were treated as three independent analyses.

In data set [3] the test system is DNA repair foci in LN229 MGMT+/−, MMR+/− cells. The data set can be described thus: Immunofluorescence foci assays (γH2AX, 53BP1, pRPA). The settings on record: 20 μM, 2 to 48 h. On the procedure: FIGS. 5A-5K: KL-50 activates DNA damage response pathways and cycle arrest in MGMT-cells, independent of MMR, and induces sensitivity in cells deficient in ICL or HR repair. […] Columns, mean; error bars, SD; n 5 technical replicates. FIGS. 5D-5K: KL-50 induces activation of the ATR-CHK1 and ATM-CHK2 signaling axes and delayed DNA repair foci formation in MGMT-deficient cells, independent of MMR status. […] Treatment with 1 μM doxorubicin for 24 h (Doxo) served as a positive control for p-CHK1 activation. […] Points, mean % cells with >10 foci; error bars, SD; n >5 technical replicates. […] Points, % cells with 10 foci, n>250 cells per condition.
Immunofluorescence Foci Assays. High-throughput immunofluorescence foci assays were performed at the Yale Center for Molecular Discovery (YCMD). Cells were seeded at 2000 cells/well in black polystyrene flat bottom 384-well plates (Greiner Bio-One) and allowed to adhere overnight. Compound addition was performed utilizing a Labcyte Echo 550 liquid handler (Beckman Coulter), with 6 replicates per test condition and 12 replicates per control condition. Following drug incubation, cells were fixed and stained for phospho-SER139-H2AX (yH2AX), 53BP1, or phospho-SER33-RPA2 (pRPA) as follows. […]

Consider two compounds from patent US20240294478A1, “ANTI-CANCER COMPOUNDS AND METHODS OF USE” (YALE UNIVERSITY, priority 2021, published 2024).

Turning to `NC(=O)c1ncn2c(=O)n(CCF)nnc12` [KL-50], the “cytotoxicity in DLD1 cells” value in data set [1] is “toxic to these cells, but only after O^6BG-induced MGMT depletion”. Further, in data set [2], the “G2 arrest in MGMT+/MMR+ cells” value is listed as “moderate G2 arrest” and the “G2 arrest in MGMT−/MMR− cells” value is given as “attenuated G2 arrest”. In addition, in data set [2] (24 to 48 h), the “G2 arrest in MGMT−/MMR+ cells” value is listed as “increasing G2 arrest”. The “γH2AX, 53BP1, pRPA foci formation” value in data set [3] was “induced a maximal foci response at 48 h, specifically in MGMT-cells and irrespective of MMR status”.
Consider `Cn1nnc2c(C(N)=O)ncn2c1=O` [TMZ, 4-methyl-5-oxo-2,3,4,6,8-pentazabicyclo[4.3.0]nona-2,7,9-triene-9-carboxamide, reference compound], for which the “cytotoxicity in DLD1 cells” value in data set [1] is “inactive”. Besides, in data set [2], the “G2 arrest in MGMT+/MMR+ cells” value is “moderate G2 arrest” and the “G2 arrest in MGMT−/MMR− cells” value was “absent”. In addition, the “γH2AX, 53BP1, pRPA foci formation” value in data set [3] is on record as “induced a comparable response in MGMT-cells, but this was abolished in the absence of functional MMR”.
